# Where two headings read alike, the source gives them in different places.
# Legend:
# Sprague-Dawley rats = assay: Blood pressure, heart rate and baroreceptor reflex sensitivity; assay type: in vivo, rat
# Description: Sprague-Dawley rats were used to study the effects of (Ia) on reperfusion injury following stroke in a rodent model. The rats were anesthetized, and injected with (la) (0.01-0.1 mg/kg). After 30 minutes, occlusion of the middle cerebral artery (MCA) was performed.
# All experiments were conducted on male Sprague-Dawley rats (total of 229 rats; 250-350 g; Charles River, Montreal, PQ, Canada). For all animals, food and tap water were available ad libitum. Rats were anesthetized with sodium thiobutabarbital (Inactin; Sigma-Aldrich; St. Louis, Mo.; 100 mg/kg ip), which provided a stable plane of anesthesia for the full duration of the experimental time period. To monitor blood pressure and heart rate, a polyethylene catheter (PE-50; Clay Adams, Parsippany, N.J.) was inserted into the right femoral artery. For intravenous administration of drugs, a second polyethylene catheter (PE-10; Clay Adams) was inserted into the right femoral vein. Arterial blood pressure was measured with a pressure transducer (Gould P23 ID, Cleveland, Ohio) connected to a Gould model 2200S polygraph. Heart rate was determined from the pulse pressure using a Gould tachograph (Biotach). […] An endotracheal tube was inserted to facilitate breathing. Body temperature was monitored and maintained at 37±1° C. using a Physitemp feedback system (Physitemp Instruments, Clifton, N.J.).
# To determine the effect of the compound of Formula (Ia) (0.1 mg/kg; 1 ml/kg; n=4) or vehicle (25% EtOH; 1 ml/kg; n=4) administration on baseline blood pressure and heart rate, continuous recordings of blood pressure and heart rate were taken prior to and following drug or vehicle administration. Further recordings of the parameters were made at 15, 30, 45, 60, 90, and 120 min following drug administration, at which time the experiment was terminated.
# To determine the effect of drug administration on autonomic reflex activation, the baroreceptor reflex was evoked using a bolus intravenous injection of the α-adrenergic receptor agonist, phenylephrine-hydrochloride (Sigma-Aldrich; 0.1 ml; 2.5 μg/ml iv). The ratio of the peak change in the magnitude of the reflex bradycardia to the magnitude of the phenylephrine-induced pressor response [ΔHR (heart rate)/ΔMAP (mean arterial pressure)] was used as a measure of baroreceptor reflex sensitivity (BRS). BRS was tested at 10 min and immediately prior to the compound of Formula (Ia) (0.1 mg/kg; 1 ml/kg; n=3) or vehicle (25% EtOH; 1 ml/kg; n=3) administration. BRS was then tested 15 and 30 min following drug administration (prior to MCAO), and then 5, 10, 20, and 30 min during MCAO (30 min MCAO), as well as 10, 20, 30, 60, 90, 120, 150, 210, 270, and 330 min following suture removal. The experiments were terminated after 5.5 h of reperfusion.
# [1] = tested on: dog liver microsomes (DLM); assay: Metabolic stability using dog liver microsomes; assay type: in vitro ADME
# Excerpt: (§1) Table 9 summarizes the experimental conditions used in the studies of the metabolic stability of the compound of Formula (Ia) using dog liver microsomes and human liver microsomes.
# N27 neuronal cells = assay: DNA fragmentation ELISA after hydrogen peroxide exposure of N27 neuronal cells; assay type: cell-based; details: pretreatment 100 μM
# Description: Specifically, the effects of (Ia) on oxidative stress in N27 neuronal cells, a dopaminergic cell line were studied. […]
# The cells were then lysed, and DNA fragmentation was determined by ELISA assay.
# [2] = tested on: human liver microsomes (HLM); assay: Metabolic stability using human liver microsomes; assay type: in vitro ADME
# Excerpt: as §1
# [3] = 0.1 mg/kg iv 30 min prior to I/R, during 30 min MCAO and 5.5 h reperfusion
# [4] = 0.1 mg/kg iv, 2-h continuous recording, no stroke
compound,measurement,setting,value
COc1cc(C(C)=O)ccc1OC(=O)CCCCC1CCSS1 (stereo not drawn) [compound of Formula (Ia)],level of BRS depression during MCAO,Sprague-Dawley rats; 0.1 mg/kg iv 30 min prior to I/R,did not alter the level of BRS depression
same,mean arterial pressure compared with pre-MCAO values,Sprague-Dawley rats; [3],no significant differences
same,mean heart rate compared with pre-MCAO values,Sprague-Dawley rats; [3],no significant differences
same,mean baroreflex sensitivity (BRS),"Sprague-Dawley rats; 0.1 mg/kg iv 30 min prior to I/R, within 5 min of the beginning of MCAO, mean±SE",0.23±0.05 bpm/mmHg
same,mean HR vs vehicle,Sprague-Dawley rats; [4],did not significantly alter
same,mean arterial blood pressure vs vehicle,Sprague-Dawley rats; [4],did not significantly alter
same,systemic blood pressure,"Sprague-Dawley rats; Example 3, 0.01-0.1 mg/kg, measured continuously over 6 hour period",no change in systemic blood pressure
same,% Metabolism in 30 minutes,[1]; DLM control (without NADPH),0%
same,CLintr (mL/min/g liver),[1]; DLM control (without NADPH),>67 mL/min/g liver
same,% Metabolism in 30 minutes,[1]; DLM reaction (with NADPH),0%
same,CLintr (mL/min/g liver),[1]; DLM reaction (with NADPH),>67 mL/min/g liver
same,% Change with time,"Un-treated plasma, 0 h",100.00%
same,% Change with time,"Un-treated plasma, <1 min",0.00%
same,% remaining in spiked plasma sample,"immediate extraction, no stabilizer",~0%
same,% Change with time,"plasma + Formic acid, 0 h",100.00%
same,% Change with time,"plasma + Formic acid, 10 min",2.00%
same,% Change with time,"plasma + Formic acid, <1 min",15.00%
same,% Change with time,"plasma + Sodium fluoride, 0 h",100.00%
same,% Change with time,"plasma + Sodium fluoride, <1 min",2.00%
same,stability in biological matrix,rat/dog blood and plasma,unstable
same,time stabilized in plasma,with combination of DV and FA,up to 4 h
same,DNA fragmentation induced by hydrogen peroxide reduced by,N27 neuronal cells,73%
same,DNA cell fragmentation,"N27 neuronal cells; then hydrogen peroxide (1 mM), n = 4",138 ± 20 percentage of control
same,% Metabolism in 30 minutes,[2]; HLM control (without NADPH),0%
same,CLintr (mL/min/g liver),[2]; HLM control (without NADPH),>67 mL/min/g liver
same,% Metabolism in 30 minutes,[2]; HLM reaction (with NADPH),0%
same,CLintr (mL/min/g liver),[2]; HLM reaction (with NADPH),>67 mL/min/g liver

# Reference: US9012492B2, “Apocynin-lipoic acid conjugates and uses thereof” (priority 2011, dated 2015)
